From patent publication US10925969B2, “Anti-BCMA polypeptides and proteins” (priority 2015, dated 2021) come the findings set out here.

The subject of one experiment is H929 cell line. The experiment in a line: Cell killing by trypan blue staining, cells seeded at 10^6 per ml. It counts as cell-based. Conditions: H929, agent added D-0 (LMB38 100 ng/ml), washed after D-3. The protocol:
(§1) The BCMA-positive H929, U266, and RPMI cell lines were seeded at 10^6 per ml in 3 ml volume. LMB38 (BM24-Fab-LRggs) was added at 100 ng/ml at Day 0 (D-0). Cells (10 μl) were taken on different days and counted after trypan blue staining. After D-3, cells were washed and plated with media containing no toxin. For the 6 hour group, cells were washed after 6 h and plated in regular media containing no toxin. Cyclohexamide (Chxm) and 205 were used as positive controls; SS1-Fab-immunotoxin targeting mesothelin was used as a negative control (Ctrl).

Another experiment concerns RPMI cell line. Described as above. It counts as cell-based. As to conditions: agent added D-0 (LMB38 100 ng/ml). The protocol:
as §1

The test system of the next experiment is U266 cell line. Described as above. Conditions: U266, agent added D-0 (LMB38 100 ng/ml), washed after D-3. It counts as cell-based. As to the method: as §1
The next experiment has as its target T1, BCMA-rFc protein (Homo sapiens, UniProt Q02223).
T1 construct: the extracellular domain of human BCMA (residues 1-54) fused to the Fc region; made in house
T1 sequence (Q02223 1-54): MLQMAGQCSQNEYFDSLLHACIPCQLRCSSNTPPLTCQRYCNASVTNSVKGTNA
The experiment in a line: Binding kinetics of MAbs by bio-layer interferometry (BLITZ). As to conditions: for ka / kd: BCMA-rFc immobilized sensor. As to the method:
The binding kinetics of MAbs to BCMA were measured by bio-layer interferometry using a BLITZ (ForteBio, Menlo Park, Calif.) instrument. According to the manufacturer's instructions, BCMA-rFc were immobilized on amine-reactive second-generation biosensors by amine coupling following the activation of the sensor surface with N-hydroxysuccinimide (NHS) and N-ethyl-N-(3-dimethylaminopropyl) carbodiimide hydrochloride (EDC). Serial dilutions of MAbs were run across sensor surface at five different concentration in PBS (pH 7.4). The sensorgram data set was globally fit using the built-in BLITZ software to determine association rate constant (Ka), dissociation rate constant (Kd), and affinity constant (KD).
The binding kinetics of these two anti-BCMA mAbs against BCMA-rFc protein were measured by bio-layer interferometry. Serial dilutions of anti-BCMA MAbs (20, 10, 5, 2.5, 1.25 μg/ml) were applied to the BCMA-rFc immobilized sensor and detected. Real-time biomolecular interaction analyses were performed with BLITZ software. […] The dissociation constants (KD) of both mAbs were less than 1×10^−12 (exceeded the detection limits).

Experiment [1] relates to TNFRs (BCMA, TACI or BAFFR). Briefly: Cross-reactivity with TNFR superfamily members by FACS (transfected 293T cells) and ELISA (TNFR-rFc). It counts as binding, human. As to conditions: mAb at 4 μg/ml. As to the method:
For transfection experiments, 293T cells were seeded in 100 mm dishes (BD Biosciences, Bedford, Mass.) and grown at the subconfluent densities. pcDNA6/BCMA, pcDNA/TACI, or pcDNA6/BAFFR (6 μs) were transfected per dish by LIPOFECTAMINE LX and PLUS reagent according to the manufacturer's instructions. After 24 h, the transiently transfected cells were harvested and used for FACS screening. Cells (1-5×10^5) were incubated with serial dilution of hybridoma supernatants in FACS buffer (PBS containing 5% FBS and 0.1% sodium azide) for 1 h on ice. After washing twice with FACS buffer, the cells were incubated with 1:200 dilution of R-Phycoerythrin (PE)-labelled goat anti-mouse IgG F(ab′)2 (Jackson Immuno Research Laboratories, West Grove, Pa.) for 30 min. After washing twice, the cells were resuspended in 180 μl FACS buffer containing 10 nM TO-PRO-3 stain (Invitrogen), and the fluorescence associated with the live cells was measured using a BD ACCURI C6 flow cytometer (BD Biosciences). Positive hybridoma clones were transferred to 24-well pates. To exclude the false positive in the first screening, 24-well culture supernatants were re-assayed 2 days after transfer. […] The isotype of established monoclonal antibodies (MAb) was determined by a mouse MAb isotyping reagents (Sigma-Aldrich). Immunoglobulin concentrations in the culture supernatants were determined by a sandwich ELISA. […]

Experiment [2] concerns the target T2, BCMA-expressing 293T cells (Homo sapiens, UniProt Q02223).
T2 construct: One vector encoded the full-length human BCMA; expressed in transfected cells; host or cells: 293T cells transiently transfected with pcDNA6/BCMA
T2 sequence (Q02223 1-184): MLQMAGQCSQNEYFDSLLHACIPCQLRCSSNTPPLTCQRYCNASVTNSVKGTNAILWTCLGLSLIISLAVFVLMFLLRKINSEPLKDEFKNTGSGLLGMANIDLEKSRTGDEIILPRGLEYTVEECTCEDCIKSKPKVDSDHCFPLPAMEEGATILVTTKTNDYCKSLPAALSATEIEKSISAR
The experiment in a line: FACS screening of binding to cell-surface BCMA. As to the method: For transfection experiments, 293T cells were seeded in 100 mm dishes (BD Biosciences, Bedford, Mass.) and grown at the subconfluent densities. pcDNA6/BCMA, pcDNA/TACI, or pcDNA6/BAFFR (6 μs) were transfected per dish by LIPOFECTAMINE LX and PLUS reagent according to the manufacturer's instructions. After 24 h, the transiently transfected cells were harvested and used for FACS screening. Cells (1-5×10^5) were incubated with serial dilution of hybridoma supernatants in FACS buffer (PBS containing 5% FBS and 0.1% sodium azide) for 1 h on ice. […] After washing twice, the cells were resuspended in 180 μl FACS buffer containing 10 nM TO-PRO-3 stain (Invitrogen), and the fluorescence associated with the live cells was measured using a BD ACCURI C6 flow cytometer (BD Biosciences). […] The isotype of established monoclonal antibodies (MAb) was determined by a mouse MAb isotyping reagents (Sigma-Aldrich). Immunoglobulin concentrations in the culture supernatants were determined by a sandwich ELISA.
Mice were intraperitoneally immunized with BCMA-rFc fusion protein in adjuvant for the first immunization, and subsequently immunized 5 times with BCMA-rFc without adjuvant. High antibody titers (1:10,000) against the BCMA-expressing 293T cells were detected in the sera from mice immunized with BCMA-rFc. […]

For another experiment, the system named is H929 cells. Briefly: WST-8 assay of AF647-labeled and unlabeled LMB70. It counts as cell-based. Conditions: for IC50 (WST-8): in ng/mL. The protocol:
(§2) LMB70 was labeled with AF647 for measurement of uptake in vivo. LMB70 was labeled twice with AF647 using an AF647 labeling kit (Life Technologies). Labeling efficacy and activity were measured by WST-8 assay and affinity measurement.

For a further experiment, the target named is T3, BCMA (Homo sapiens, UniProt Q02223).
T3 sequence (Q02223 1-184): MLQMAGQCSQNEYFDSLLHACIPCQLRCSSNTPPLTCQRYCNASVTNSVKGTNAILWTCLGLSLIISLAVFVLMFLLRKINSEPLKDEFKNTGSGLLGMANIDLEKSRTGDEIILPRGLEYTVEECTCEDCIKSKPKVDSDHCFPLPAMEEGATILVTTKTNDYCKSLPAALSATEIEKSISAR
Briefly: Affinity measurement of AF647-labeled and unlabeled LMB70. As to conditions: after the first labeling. In kind it is binding. As to the method: as §2

The target of experiment [3] is T4, BCMA molecules on the surface of H929 cells (Homo sapiens, UniProt Q02223).
T4 construct: endogenous in cells; host or cells: H929 cells
T4 sequence (Q02223 1-184): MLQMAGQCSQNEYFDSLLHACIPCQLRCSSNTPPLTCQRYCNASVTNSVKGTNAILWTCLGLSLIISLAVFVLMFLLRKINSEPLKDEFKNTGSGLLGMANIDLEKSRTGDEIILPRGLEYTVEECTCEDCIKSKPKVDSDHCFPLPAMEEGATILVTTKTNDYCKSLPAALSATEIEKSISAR
The experiment in a line: Quantification of BCMA molecules on cell surface by flow cytometry with labeled LMB70. It counts as binding. As to conditions: 1h on ice. As to the method: To quantify the BCMA molecules on the surface of H929 cells, H929 cells were incubated with various concentrations of labeled LMB70 for 1h on ice in FLOW buffer. The cells were washed and analyzed by flow cytometry, together with AF647 quantification beads.

For the molecule `C[C@@H]1C[C@@H]([C@H](O)CC2CC(=O)NC(=O)C2)C(=O)[C@@H](C)C1` [Chxm, Cyclohexamide], the Percent dead was 9% in the experiment with H929 cell line (D-0); 70% with H929 cell line (D-1); 92% with H929 cell line (D-2); 100% in the experiment with H929 cell line (D-3); 100% with H929 cell line (D-6); 15% in the experiment on RPMI cell line (washed after D-3, D-0). Moreover, the Percent dead with RPMI cell line (washed after D-3, D-1) is on record as 75%; in the experiment with RPMI cell line (washed after D-3, D-2), 100%; in the experiment on RPMI cell line (washed after D-3, D-3) it was 100%; with RPMI cell line (washed after D-3, D-6), 100%; in the experiment on U266 cell line (D-0), 7%; with U266 cell line (D-1), 25%. The results for the Percent dead in the experiment on U266 cell line (D-2), in the experiment on U266 cell line (D-3) and in the experiment with U266 cell line (D-6) were 50%, 80% and 100%, respectively.

B1: BM24: anti-BCMA mAb, IgG1 isotype; VH SEQ ID NO: 13, VL SEQ ID NO: 14 (antibody, V domains shown)
VH: MEVQLQQSGPELVKPGASVKMSCKASGNTLTNYVIHWMKQMPGQGLDWIGYILPYNDLTKYNEKFTGKATLTSDKSSSSAYMELNSLTSEDSAVYYCTRWDWDGFFDPWGQGTTLTVSSAS
VL: MDIVMTQSPLSLPVSLGDQASISCRSTQSLVHSNGNTHLHWYLQRPGQSPKLLIYSVSNRFSEVPDRFSASGSGTDFTLKISRVEAEDLGVYFCSQTSHIPYTFGGGTKLEIKR
modifications: IgG1
Regarding B1, in the experiment with BCMA-rFc protein, the “ka” value was determined as 297000 M⁻¹ s⁻¹ and the “kd” value is <1e-07 s⁻¹. Besides, in experiment [1], the “cross-reactivity with other TNFR superfamily members” value is “specific to BCMA”. Also, in experiment [2], the “binding to BCMA antigen on the cell surface” value is “high affinity and specificity”.

B2: BM306: anti-BCMA mAb, IgG1 isotype; VH SEQ ID NO: 15, VL SEQ ID NO: 16 (antibody, V domains shown)
VH: MEVQLQQSGPELVKPGASVKISCKTSGYTFTEYTINWVKQSHGKSLEWIGDIYPDNYNIRYNQKFKGKATLTVDKSSSTAYMELRSLSSEDSAIYYCANHDFFVFWGQGTLVTVSAAK
VL: MDIQMTQATSSLSASLGDRVTINCRTSQDISNHLNWYQQKPDGTVKLLIYYTSRLQSGVPSRFSGSGSGTDYSLTISNLEQEDIGTYFCHQGNTLPPTFGGGTKLEIKR
modifications: IgG1
In the case of B2, in the experiment with BCMA-rFc protein, the “association rate constant (Ka) compared to BM24” value is reported as “high”, the “ka” value worked out at 415000 M⁻¹ s⁻¹ and the “kd” value was <1e-07 s⁻¹. In experiment [1], the “cross-reactivity with other TNFR superfamily members” value is on record as “specific to BCMA”. The “binding to BCMA antigen on the cell surface” value in experiment [2] is “high affinity and specificity”.

B3: labeled LMB70: LMB70 labeled with AF647 using an AF647 labeling kit (conjugate)
VH: EVQLQQSGPELVKPGASVKISCKTSGYTFTEYTINWVKQSHGKSLEWIGDIYPDNYNIRYNQKFKGKATLTVDKSSSTAYMELRSLSSEDSAIYYCANHDFFVFWGQGTLVTVSA
VL: DIQMTQATSSLSASLGDRVTINCRTSQDISNHLNWYQQKPDGTVKLLIYYTSRLQSGVPSRFSGSGSGTDYSLTISNLEQEDIGTYFCHQGNTLPPTFGGGTKLEIK
modifications: left off: another chain or arm of the molecule; a dimerising Fc or GST; small tags and cut ends
notes: LMB70 labeled with AF647 using an AF647 labeling kit
B3: the “IC50 (WST-8)” value came to 6.082 in the experiment on H929 cells (after the first labeling) and 10.69 with H929 cells (after the second labeling). The “fold less active than the unlabeled toxins” value in the experiment with H929 cells (labeled versus unlabeled) was “about 4 fold”. Also, the “Bmax (affinity measurement)” value with BCMA came out at 1131. Moreover, the Bmax in experiment [3] (first labeling) is listed as 150,000 molecules per cell; in experiment [3] (second labeling), 230,000 molecules per cell.
